For one test, the target named is T1, delta opioid receptor (Rattus norvegicus, UniProt P33533).
T1 construct: the forebrains were homogenized in Tris buffer in a Teflon®-glass homogenizer; from tissue; host or cells: forebrain of male Wistar rats (particulate membrane preparation)
The test can be described thus: Rat brain delta opioid receptor binding assay. As to conditions: rat forebrain membranes, [3H]DPDPE or [3H]naltrindole, 25° C., 2.5 h. As for the experimental part: Rat Brain Delta Opioid Receptor Binding Assay
(§1) Procedure: Male, Wistar rats (150-250 g, VAF, Charles River, Kingston, N.Y.) were killed by CO2, and their brains removed and placed immediately in ice cold Tris HCl buffer (50 mM, pH 7.4). The forebrains were separated from the remainder of the brain by a coronal transection, beginning dorsally at the colliculi and passing ventrally through the midbrain-pontine junction. After dissection, the forebrains were homogenized in Tris buffer in a Teflon®-glass homogenizer. The homogenate was diluted to a concentration of 1 g of forebrain tissue per 80 mL Tris and centrifuged at 39,000×g for 10 min. The pellet was resuspended in the same volume of Tris buffer containing 5 mM MgCl2 with several brief pulses from a Polytron homogenizer. This particulate preparation was used for the delta opioid binding assays.
Analysis: The data from the scintillation counter were used to calculate either the % inhibition compared to control binding (when only a single concentration of test compound was evaluated) or a Ki value (when a range of concentrations was tested). Percent inhibition was calculated as: [(total dpm−test compound dpm)/(total dpm−nonspecific dpm)]*100. Kd and Ki values were calculated using GraphPad PRISM data analysis program.

A further test concerns the target T2, mu opioid receptor (Rattus norvegicus, UniProt P33535).
T2 construct: the forebrains were homogenized in Tris buffer in a Teflon®-glass homogenizer; from tissue; host or cells: forebrain of male Wistar rats (particulate membrane preparation)
Nature of the test: Rat brain mu opioid receptor binding assay. As to conditions: rat forebrain membranes, [3H]DAMGO, 25° C., 2.5 h. As for the experimental part:
Rat Brain Mu Opioid Receptor Binding Assay
as §1
Analysis: The data from the scintillation counter were used to calculate either the % inhibition compared to control binding (when only a single concentration of test compound was evaluated) or a Ki value (when a range of concentrations tested). Percent inhibition was calculated as: [(total dpm−test compound dpm)/(total dpm−nonspecific dpm)]*100. Kd and Ki values were calculated using GraphPad PRISM data analysis program.

[1] abbreviates: rDOR (Ki, nM): Rat delta opioid receptor binding constant.
[2] abbreviates: rMOR (Ki, nM): Rat mu opioid receptor binding constant.
Where [3] appears, read: read-out: rDOR (Ki, nM): Rat delta opioid receptor binding constant.
[4] abbreviates: read-out: rMOR (Ki, nM): Rat mu opioid receptor binding constant.

Like-named read-outs stand apart in the source and are kept apart here.

T2 sequence (P33535 whole entry): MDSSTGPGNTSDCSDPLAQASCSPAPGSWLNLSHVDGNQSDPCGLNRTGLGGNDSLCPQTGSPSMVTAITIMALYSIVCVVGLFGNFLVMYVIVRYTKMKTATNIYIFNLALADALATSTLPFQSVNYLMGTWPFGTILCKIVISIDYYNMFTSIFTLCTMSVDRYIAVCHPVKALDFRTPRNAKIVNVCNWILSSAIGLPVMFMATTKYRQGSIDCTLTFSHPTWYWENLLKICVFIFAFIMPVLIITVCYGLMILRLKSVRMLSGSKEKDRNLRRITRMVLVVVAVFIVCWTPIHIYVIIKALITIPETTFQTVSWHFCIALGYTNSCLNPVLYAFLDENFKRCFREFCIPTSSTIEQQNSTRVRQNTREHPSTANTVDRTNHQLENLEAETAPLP
T1 sequence (P33533 whole entry): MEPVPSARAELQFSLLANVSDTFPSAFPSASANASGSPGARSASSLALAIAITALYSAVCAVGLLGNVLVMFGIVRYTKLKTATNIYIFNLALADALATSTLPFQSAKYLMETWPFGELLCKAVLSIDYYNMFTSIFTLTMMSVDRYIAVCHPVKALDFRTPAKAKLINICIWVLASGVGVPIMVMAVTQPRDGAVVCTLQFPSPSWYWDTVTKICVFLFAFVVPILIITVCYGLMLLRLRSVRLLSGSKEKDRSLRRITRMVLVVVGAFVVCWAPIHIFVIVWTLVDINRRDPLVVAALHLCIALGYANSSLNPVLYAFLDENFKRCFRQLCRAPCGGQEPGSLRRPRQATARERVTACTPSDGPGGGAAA

With `c1ccc(Nc2cccc3c2Oc2ccccc2C3=C2CC3CCC(C2)N3)cc1` [Cpd 64, [9-(8-Azabicyclo[3.2.1]oct-3-ylidene)-9H-xanthen-4-yl]-phenylamine], the Ki at delta opioid receptor (setting [1]) stood at 862 nM; at mu opioid receptor (setting [2]), 2420 nM.

Turning to `Oc1cccc2c1Oc1ccccc1C2=C1CC2CCC(C1)N2Cc1csc2ccccc12` [Cpd 33], the results for the Ki on delta opioid receptor (setting [3]) and on mu opioid receptor (setting [4]) were 137 nM and 168 nM, respectively.

Take `c1cncc(Nc2cccc3c2Oc2ccccc2C3=C2CC3CCC(C2)N3)c1` [Cpd 62, [9-(8-Azabicyclo[3.2.1]oct-3-ylidene)-9H-xanthen-4-yl]-pyridin-3-yl-amine]: the Ki came to 108 nM at delta opioid receptor (setting [1]) and 159 nM on mu opioid receptor (setting [2]).

In the case of `O=C(Nc1ccccc1)c1cccc2c1Oc1ccccc1C2=C1CC2CCC(C1)N2` (single isomer, unassigned) [Cpd 47, 9-(8-Azabicyclo[3.2.1]oct-3-ylidene)-9H-xanthene-4-carboxylic acid phenylamide], the values for the Ki on delta opioid receptor (setting [1]) and on mu opioid receptor (setting [2]) were 250 nM and 293 nM, respectively.

In the case of `COC(=O)c1cccc2c1Oc1ccccc1C2=C1CC2CCC(C1)N2C(=O)C(F)(F)F` [Cpd 7, 9-[8-(2,2,2-Trifluoroacetyl)-8-azabicyclo[3.2.1]oct-3-ylidene]-9H-xanthene-4-carboxylic acid methyl ester], the Ki on delta opioid receptor (setting [1]) and on mu opioid receptor (setting [2]) was > 10000 nM in each case.

Turning to `O=C(NCCc1ccccc1)c1cccc2c1Oc1ccccc1C2=C1CC2CCC(C1)N2` (single isomer, unassigned) [Cpd 55, 9-(8-Azabicyclo[3.2.1]oct-3-ylidene)-9H-xanthene-4-carboxylic acid phenethylamide], the Ki at delta opioid receptor (setting [1]) was found to be 100 nM; at mu opioid receptor (setting [2]) it was 200 nM.

With `O=C(N1C2CCC1CC(=C1c3ccccc3Oc3c(O)cccc31)C2)C(F)(F)F` (single isomer, unassigned) [Cpd 5, 2,2,2-Trifluoro-1-[3-(4-hydroxy-xanthen-9-ylidene)-8-azabicyclo[3.2.1]oct-8-yl]-ethanone], the Ki worked out at 2110 nM at delta opioid receptor (setting [1]) and 5620 nM on mu opioid receptor (setting [2]).

Turning to `Clc1ccc(Nc2cccc3c2Oc2ccccc2C3=C2CC3CCC(C2)N3)cc1` [Cpd 61, [9-(8-Azabicyclo[3.2.1]oct-3-ylidene)-9H-xanthen-4-yl]-(4-chlorophenyl)-amine], the Ki at delta opioid receptor (setting [1]) worked out at 395 nM; on mu opioid receptor (setting [2]) it was 3160 nM.

In the case of `O=C(N1C2CCC1CC(=C1c3ccccc3Oc3c(O)cccc31)C2)C(F)(F)F` (single isomer, unassigned) [Cpd 6, 2,2,2-Trifluoro-1-[3-(4-hydroxy-xanthen-9-ylidene)-8-azabicyclo[3.2.1]oct-8-yl]-ethanone], the values for the Ki on delta opioid receptor (setting [1]) and at mu opioid receptor (setting [2]) were 8500 nM and > 10000 nM, respectively.

`N=C(NO)c1cccc2c1Oc1ccccc1C2=C1CC2CCC(C1)N2` (single isomer, unassigned) [Cpd 42, 9-(8-Aza-bicyclo[3.2.1]oct-3-ylidene)-N-hydroxy-9H-xanthene-4-carboxamidine]: the Ki came to 237 nM on delta opioid receptor (setting [3]) and 56.5 nM on mu opioid receptor (setting [2]).

Regarding `O=C(NCc1ccccc1)c1cccc2c1Oc1ccccc1C2=C1CC2CCC(C1)N2` (single isomer, unassigned) [Cpd 53, 9-(8-Azabicyclo[3.2.1]oct-3-ylidene)-9H-xanthene-4-carboxylic acid benzylamide], the Ki on delta opioid receptor (setting [1]) was found to be 1130 nM; at mu opioid receptor (setting [2]), 2030 nM.

Regarding `Oc1cccc2c1Oc1ccccc1C2=C1CC2CCC(C1)N2Cc1cccc2cnccc12` [Cpd 35], the Ki was determined as 180 nM on delta opioid receptor (setting [3]) and 286 nM on mu opioid receptor (setting [4]).

As to `Oc1cccc2c1Oc1ccccc1C2=C1CC2CCC(C1)N2` (single isomer, unassigned) [Cpd 9, 9-(8-Azabicyclo[3.2.1]oct-3-ylidene)-9H-xanthen-4-ol], the Ki at delta opioid receptor (setting [1]) turned out to be 68.2 nM; on mu opioid receptor (setting [2]) it was 63.6 nM.

Consider `CN(C)CCNC(=O)c1cccc2c1Oc1ccccc1C2=C1CC2CCC(C1)N2` [Cpd 15, 9-(8-Azabicyclo[3.2.1]oct-3-ylidene)-9H-xanthene-4-carboxylic acid (2-dimethylaminoethyl)-amide], for which the values for the Ki on delta opioid receptor (setting [1]) and on mu opioid receptor (setting [2]) were 1420 nM and 336 nM, respectively.

For `N=C(NO)c1cccc2c1Oc1ccccc1C2=C1CC2CCC(C1)N2` (single isomer, unassigned) [Cpd 43, 9-(8-Aza-bicyclo[3.2.1]oct-3-ylidene)-N-hydroxy-9H-xanthene-4-carboxamidine], the Ki at delta opioid receptor (setting [3]) and at mu opioid receptor (setting [4]) was > 10000 nM throughout.

For `NC(=O)c1cccc2c1Oc1ccccc1C2=C1C[C@H]2CC[C@@H](C1)N2C(=O)C(F)(F)F` (single isomer, unassigned) [Cpd 38, (−)-9-[8-(2,2,2-Trifluoroacetyl)-8-azabicyclo[3.2.1]oct-3-ylidene]-9H-xanthene-4-carboxylic acid amide], the Ki at delta opioid receptor (setting [3]) is 6440 nM; at mu opioid receptor (setting [4]), > 10000 nM.

Turning to `COc1cccc2c1Oc1ccccc1C2=C1CC2CCC(C1)N2` [Cpd 1], the Ki at delta opioid receptor (setting [3]) was found to be 3800 nM; at mu opioid receptor (setting [4]), 1790 nM.

Consider `Oc1cccc2c1Oc1ccccc1C2=C1CC2CCC(C1)N2Cc1ccoc1` (single isomer, unassigned) [Cpd 57, 9-(8-Furan-3-ylmethyl-8-azabicyclo[3.2.1]oct-3-ylidene)-9H-xanthen-4-ol], for which the Ki at delta opioid receptor (setting [1]) turned out to be 246 nM; at mu opioid receptor (setting [2]), 36.5 nM.

`NC(=O)c1cccc2c1Oc1ccccc1C2=C1C[C@H]2CC[C@@H](C1)N2C(=O)C(F)(F)F` (single isomer, unassigned) [Cpd 36, (+)-9-[8-(2,2,2-Trifluoroacetyl)-8-azabicyclo[3.2.1]oct-3-ylidene]-9H-xanthene-4-carboxylic acid amide]: the Ki at delta opioid receptor (setting [3]) was 1790 nM; at mu opioid receptor (setting [4]), > 10000 nM.

Regarding `CN1C2CCCC1CC(=C1c3ccccc3Oc3c(O)cccc31)C2` [Cpd 17, 9-(9-Methyl-9-azabicyclo[3.3.1]non-3-ylidene)-9H-xanthen-4-ol], the results for the Ki at delta opioid receptor (setting [1]) and at mu opioid receptor (setting [2]) were 132 nM and 221 nM, respectively.

As for `CN1C2CCC1CC(=C1c3ccccc3Oc3c(O)cccc31)C2` (single isomer, unassigned) [Cpd 52, 9-(8-Methyl-8-azabicyclo[3.2.1]oct-3-ylidene)-9H-xanthen-4-ol], the Ki at delta opioid receptor (setting [1]) was 323 nM; at mu opioid receptor (setting [2]) it was 1320 nM.

Consider `Oc1cccc2c1Oc1ccccc1C2=C1CC2CCC(C1)N2Cc1cccnc1` (single isomer, unassigned) [Cpd 49, 9-(8-Pyridin-3-ylmethyl-8-azabicyclo[3.2.1]oct-3-ylidene)-9H-xanthen-4-ol], for which the Ki on delta opioid receptor (setting [1]) worked out at 62.6 nM; on mu opioid receptor (setting [2]), 443 nM.

Take `CN1CCC(=C2c3ccccc3Oc3c(O)cccc32)CC1` [Cpd 18, 9-(1-Methyl-piperidin-4-ylidene)-9H-xanthen-4-ol]: the Ki on delta opioid receptor (setting [1]) came to 330 nM; at mu opioid receptor (setting [2]), 4610 nM.

Consider `Oc1cccc2c1Oc1ccccc1C2=C1CC2CCC(C1)N2Cc1ccccn1` (single isomer, unassigned) [Cpd 59, 9-(8-Pyridin-2-ylmethyl-8-azabicyclo[3.2.1]oct-3-ylidene)-9H-xanthen-4-ol], for which the Ki on delta opioid receptor (setting [1]) was determined as 0.07 nM; at mu opioid receptor (setting [2]), 0.39 nM.

For `CN(C)C(=O)c1cccc2c1Oc1ccccc1C2=C1CC2CCC(C1)N2` [Cpd 11, 9-(8-Azabicyclo[3.2.1]oct-3-ylidene)-9H-xanthene-4-carboxylic acid dimethylamide], the Ki was found to be 3110 nM at delta opioid receptor (setting [1]) and 471 nM at mu opioid receptor (setting [2]).

Take `Oc1cccc2c1Oc1ccccc1C2=C1CC2CCC(C1)N2Cc1ccccn1` (single isomer, unassigned) [Cpd 60, 9-(8-Pyridin-2-ylmethyl-8-azabicyclo[3.2.1]oct-3-ylidene)-9H-xanthen-4-ol]: the Ki at delta opioid receptor (setting [1]) and at mu opioid receptor (setting [2]) was 0.01 nM in each case.

Source of the values: US20090275610A1, “TRICYCLIC OPIOID MODULATORS” (priority 2005, published 2009).
